This is an account of results in US20100305120A1, “COMPOUNDS FOR TREATING MUSCULAR DYSTROPHY” (BIOMARIN IGA LIMITED, priority 2008, published 2010).

The assay has as its system Utrophin A promoter linked to a luciferase reporter gene. Nature of the assay: Luciferase reporter assay (murine H2K cells), H2K/mdx/Utro A reporter cell line. To be noted: 48 h; test compound concentration 10 μM; mdx mouse H2K Utrophin A reporter cells; read-out: Activity (luciferase level relative to control). In kind it is cell-based. A digest of the protocol:
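Immortalized mdx mouse H2K myoblasts stably carrying ~5 kb utrophin A promoter–luciferase construct, kept at 33 °C, 10% CO2. Compound added 24 h after plating, typically at 10 μM final, for 48 h; luciferase measured by cell lysis and luminescence.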
For orientation: In a reporter assay the amount or activity of a reporter protein is the signal.

Structures are written as SMILES.

In the case of `O=C(Nc1ccc2c(c1)OCCO2)c1nn(Cc2ccc(C(=O)N3CCOCC3)cc2)c2cc(C(F)(F)F)ccc12` [Compound 163, N-(2,3-dihydrobenzo[b][1,4]dioxin-6-yl)-1-(4-(morpholine-4-carbonyl)benzyl)-6-(trifluoromethyl)-1H-indazole-3-carboxamide], the activity at 10 µM is less than 200%.
